This passage reports IC50 and Ki results from US10519107B2, “Sulfonamide compounds and their use as STAT5 inhibitors” (Governing Council of the University of Toronto, priority 2014, dated 2019).

SMILES strings stand for the structures. Where only a bound is given, the exact number is not on record here.

Test [1] deals with T1, wildtype STAT5B protein (SH2 domain) (Homo sapiens, UniProt P51692).
T1 sequence (P51692 1-787): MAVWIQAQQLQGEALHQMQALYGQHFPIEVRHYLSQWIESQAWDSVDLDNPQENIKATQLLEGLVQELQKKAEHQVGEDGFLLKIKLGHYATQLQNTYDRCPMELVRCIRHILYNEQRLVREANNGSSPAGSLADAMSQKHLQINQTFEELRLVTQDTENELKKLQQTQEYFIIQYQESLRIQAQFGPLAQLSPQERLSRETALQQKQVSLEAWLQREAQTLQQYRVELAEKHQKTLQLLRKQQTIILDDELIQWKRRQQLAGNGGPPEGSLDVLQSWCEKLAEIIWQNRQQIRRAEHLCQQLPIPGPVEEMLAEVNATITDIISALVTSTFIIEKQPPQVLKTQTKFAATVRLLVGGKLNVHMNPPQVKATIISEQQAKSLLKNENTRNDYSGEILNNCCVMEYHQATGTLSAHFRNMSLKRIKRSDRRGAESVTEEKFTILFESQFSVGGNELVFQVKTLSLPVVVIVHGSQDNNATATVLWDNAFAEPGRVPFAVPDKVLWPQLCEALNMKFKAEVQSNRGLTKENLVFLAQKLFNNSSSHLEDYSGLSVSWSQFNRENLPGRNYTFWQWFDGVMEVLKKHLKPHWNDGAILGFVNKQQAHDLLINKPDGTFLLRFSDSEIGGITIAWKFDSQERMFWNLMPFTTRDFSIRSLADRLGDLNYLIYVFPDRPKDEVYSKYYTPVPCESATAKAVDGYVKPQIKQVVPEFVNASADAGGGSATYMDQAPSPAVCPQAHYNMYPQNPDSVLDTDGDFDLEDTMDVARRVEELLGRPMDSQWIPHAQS
Briefly: Fluorescence polarization competitive binding, STAT5b. Conditions: FP; for IC50: 5-FAM-GpYLVLDKW 10 nM, STAT5B 250 nM; for Ki: converted from IC50 with Equation 1. As to the method: (§1) Fluorescence assays were performed in flat black 384-well plates (Corning) and fluorescence polarization measurements were taken with the Infinite M1000 machine (Tecan, Crailsheim, Germany). The buffer conditions for all assays were 20 mM HEPES, 50 mM NaCl, 1 mM EDTA, 2 mM dithiothreitol, pH 7.5 and the final DMSO concentration in the wells was kept constant at 10%.
The point at which 80% of the fluoresceinated-phosphopeptide was bound was used as the optimal protein concentration required for the competitive fluorescent polarization assays.
Compounds were titrated at concentrations ranging from 1->60,000 nM and incubated for a further 15 minutes at which point fluorescence polarization measurements were taken in triplicate. The final well concentrations of the fluoresceinated-phosphopeptide and STAT5B were 10 nM and 250 nM, respectively.
The resulting fluorescence polarization measurements were normalized and plotted against compound concentration on a logarithmic scale. The raw data was fitted with a standard dose-normalized response inhibition curve using GraphPad Prism 6 software.
(§2) Modified Cheng-Pruskoff equation containing a correction factor for protein concentration.
In general terms: Fluorescence polarisation rises when a labelled molecule tumbles more slowly, as on binding a larger partner.

The target of another test is wildtype STAT3 protein (Homo sapiens, UniProt P40763). The experiment in a line: Fluorescence polarization competitive binding, STAT3. Conditions: FP; converted from IC50 with Equation 1. The protocol:
as §1, with “Binding of compounds of the disclosure to the STAT5b SH2 domain was assessed using fluorescence polarization assays similar to those previously reported.^15 Analogous assays were also performed with STAT3 protein to determine the specificity of the compounds (13a-d). Fluorescence” for “Fluorescence”
Calibration curves for the wildtype STAT3 and STAT5b proteins were derived by incubating a 10 nM final concentration of fluoresceinated-phosphopeptide (5-FAM-pYLPQTC (SEQ ID NO:1) and 5-FAM-GpYLVLDKW (SEQ ID NO:2) for STAT3 and STAT5B, respectively), which are known to bind the SH2 domains, with increasing concentrations of protein (as shown in FIG. 3). The point at which 80% of the fluoresceinated-phosphopeptide was bound was used as the optimal protein concentration required for the competitive fluorescent polarization assays.
For the STAT5b fluorescence polarization assays, the 5-FAM-GpYLVLDKW (SEQ ID NO:2) peptide and STAT5b protein were first incubated for 30 minutes at room temperature. Compounds were titrated at concentrations ranging from 1->60,000 nM and incubated for a further 15 minutes at which point fluorescence polarization measurements were taken in triplicate. The final well concentrations of the fluoresceinated-phosphopeptide and STAT5B were 10 nM and 250 nM, respectively. The same protocol was used for the analogous STAT3 FP assays, except that the 5-FAM-pYLPQTC (SEQ ID NO:1) peptide was used as a probe and the final STAT3 concentration was 150 nM in each well.
The resulting fluorescence polarization measurements were normalized and plotted against compound concentration on a logarithmic scale. The raw data was fitted with a standard dose-normalized response inhibition curve using GraphPad Prism 6 software. The IC50 values were converted to Ki values using Equation 1, which corrects for protein concentration and is a more accurate determination of inhibitory constants in a fluorescence polarization assay than the Cheng-Pruskoff equation.^15 All inhibitory constants and calculated Ki values are summarized in Table 1.
as §2

Chain of wildtype STAT3 protein (P40763 whole entry, species assumed, the tested form may be a part): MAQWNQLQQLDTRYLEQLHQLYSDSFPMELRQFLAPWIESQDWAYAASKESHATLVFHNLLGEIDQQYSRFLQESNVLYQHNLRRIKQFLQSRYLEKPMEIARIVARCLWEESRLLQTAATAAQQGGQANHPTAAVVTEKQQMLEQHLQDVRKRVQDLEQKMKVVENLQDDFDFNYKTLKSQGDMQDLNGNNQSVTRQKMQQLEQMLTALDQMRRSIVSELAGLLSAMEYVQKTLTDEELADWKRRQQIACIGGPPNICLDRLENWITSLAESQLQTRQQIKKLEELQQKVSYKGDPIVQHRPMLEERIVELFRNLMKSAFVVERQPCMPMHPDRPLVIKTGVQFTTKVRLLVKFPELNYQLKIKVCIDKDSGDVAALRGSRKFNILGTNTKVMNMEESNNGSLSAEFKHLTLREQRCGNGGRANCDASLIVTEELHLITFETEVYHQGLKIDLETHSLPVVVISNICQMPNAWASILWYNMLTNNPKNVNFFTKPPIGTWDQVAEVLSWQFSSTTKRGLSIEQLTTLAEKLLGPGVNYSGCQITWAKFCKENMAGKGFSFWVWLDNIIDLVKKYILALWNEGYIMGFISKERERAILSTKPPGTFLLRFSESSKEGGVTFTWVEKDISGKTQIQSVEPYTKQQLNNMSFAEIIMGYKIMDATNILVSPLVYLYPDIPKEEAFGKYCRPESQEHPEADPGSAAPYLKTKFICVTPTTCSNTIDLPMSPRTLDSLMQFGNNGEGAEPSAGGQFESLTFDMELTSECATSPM

In the case of `Cc1cc(C)c(S(=O)(=O)N(CC(=O)N(Cc2ccc3ccccc3c2)c2ccc(C(=O)O)c(O)c2)Cc2ccc(Cl)cc2)c(C)c1` [Compound 13c, 4-(2-((N-(4-chlorobenzyl)-2,4,6-trimethylphenyl)sulfonamido)-N-(naphthalene-2-ylmethyl)acetamido)-2-hydroxybenzoic Acid], in test [1], the 50% inhibitory concentration (IC50) worked out at 8.2 µM and the affinity, expressed as Ki, was 3.24 µM. Also, the Ki at wildtype STAT3 protein was > 60 µM.

In test [1], `Cc1cc(C)c(S(=O)(=O)N(CC(=O)N(Cc2cc(C(C)(C)C)cc(C(C)(C)C)c2)c2ccc(C(=O)O)c(O)c2)Cc2ccc(Cl)cc2)c(C)c1` [Compound 13b, 4-(2-((N-(4-chlorobenzyl)-2,4,6-trimethylphenyl)sulfonamido)-N-(3,5-di-tert-butylbenzyl)acetamido)-2-hydroxybenzoic Acid] had a half-inhibitory concentration (IC50) of 6.53 µM and an inhibition constant Ki of 2.57 µM. The inhibition constant Ki on wildtype STAT3 protein was > 60 µM.

For `O=c1ccoc2ccccc12` [Chromone, reference compound], in test [1], the Ki was > 60 µM.

As to `O=C(O)c1ccc(N(Cc2ccc3ccccc3c2)C(=O)CN(Cc2ccc(Cl)cc2)S(=O)(=O)c2c(F)c(F)c(F)c(F)c2F)cc1O` [Compound 13d, 4-(2-((N-(4-chlorobenzyl)-2,3,4,5,6-pentafluorophenyl)sulfonamido)-N-(-naphthalene-2-ylmethyl)acetamido)-2-hydroxybenzoic Acid], in test [1], the IC50 is 3.95 µM and the affinity, expressed as Ki, was 1.56 µM. Besides, the Ki at wildtype STAT3 protein is > 60 µM.

As usually defined, the IC50 is the concentration that gives 50% inhibition. The low end stands for greater potency, the high end for weaker potency. In general, Ki refers to a dissociation constant, usually derived from enzyme kinetics or from competition with a known ligand. Lower therefore signals higher affinity.
